Laboratory results: patent US20120220554A1, “Combretastatins for Prevention of Posterior Capsule Opacification” (OXIGENE, INC., priority 2010, published 2012)

Columns and labels:
[1] = test system: polymerized tubulin in BMI-immortalized bovine lens epithelial (BIE) cells; assay: Dimer/polymer tubulin extraction and anti-tubulin western blot in BIE cells; format: cell-based; conditions: single 30 min treatment with 1 μM CA4P, at 30 min after start and up to 24 h after end of exposure (FIG. 4)
Description: BMI-immortalized bovine lens epithelial (BIE) cells, on plastic, and primary bovine lens epithelial cells, on their original in vivo basement membrane, (the eye lens capsule), were cultured in 10% fetal calf serum (FCS)-supplemented medium at 37° C. prior to 30 min exposure to 1 μM CA4P, after which they were returned to 10% FCS-supplemented medium. The relatively short exposure was chosen to approximate the duration of a cataract surgery procedure. At a range of time points following exposure, cells were subjected to cell viability assay (MTT-based assay, PROMEGA, UK), immunoblotting or immunofluorescence.
BMI-immortalized bovine lens epithelial cells (BIE cell line, produced in Roy Quinlan's Laboratory, University of Durham, UK), were grown at 37° C., 5% CO2, in 10 cm diameter Petri dishes in 10% fetal calf serum (FCS)-supplemented tissue culture medium (Sigma-Aldrich, UK). When nearing confluence, they were exposed to 1 μM combretastatin A 4-phosphate (CA4P) (OXiGENE, UK) diluted in 10% FCS-supplemented medium for 30 min, after which the cells were returned to 10% FCS-supplemented medium. Immediately after the end of CA4P exposure, cells were extracted to assess the proportion of dimer/polymer tubulin, as described in Lieuvin et al., 1994 (J. Cell Biology 124 (6):985-996). […]
The proportion of dimer/polymer tubulin was assessed by western blotting. […]

[2] = test system: polymerized tubulin in primary bovine lens epithelial cells; assay: Anti-tubulin immunofluorescence of primary lens epithelial cells on the lens capsule; format: cell-based; conditions: single 30 min treatment with 1 μM CA4P, at 30 min after start and up to 48 h after end of exposure (FIG. 5)
Excerpt: Bovine eyes were obtained from Coast and County Meat Group (Felling, UK) on the day of culling and lenses were dissected out of the eyes under a sterile tissue culture hood as described below. After generous dousing in 70% ethanol, eyes were cut open using a major surgical blade (Swann-Morton, UK) via a single cut, parallel and posterior to the cornea-conjunctiva limit. The eye was then inverted and the vitreous removed. The lens was freed from the ciliary fibers and immediately placed anterior face down in a SYLGARD-covered (Dow Corning, Germany) well of a 12-well tissue culture plate (Greiner Bio-One, UK). The posterior side of the lens capsule was cut in a Y-shape fashion by a thin scalpel and the resulting flaps pulled back and pinned onto the SYLGARD. The fiber mass was removed by gently rolling it off the anterior lens capsule, thus leaving most of the primary lens epithelial cell layer attached onto the anterior lens capsule. This primary lens epithelial cell layer was then cultured on its original lens capsule at 37° C., 5% CO2, in 0% FCS-supplemented tissue culture.
[…] Immediately after the end of the CA4P exposure and 48 h after the end of the CA4P exposure, the presence of polymerized tubulin in the primary lens epithelial cell layers was investigated by immunofluorescence. […]

BIE cells = assay: MTT-based viable cell number assay in BIE cells; parameters: species or system bovine; conditions: single 30 min treatment with 1 μM CA4P; over 72 h following treatment (FIG. 6)
Description: BMI-immortalized bovine lens epithelial cells (BIE cell line, produced in Roy Quinlan's Laboratory, University of Durham, UK), were seeded onto 12-well tissue culture plates in 10% fetal calf serum (FCS)-supplemented tissue culture medium (Sigma-Aldrich, UK) and kept at 37° C., 5% CO2 overnight. […] Viable cell number was assayed immediately and at 24 h, 48 h and 72 h after the end of exposure, using an MTT-based colorimetric assay (CellTiter95® Aqueous non-radioactive cell proliferation assay, Promega, UK), according to manufacturer's instructions. Briefly, the original cell culture medium was discarded from all wells and replaced by 500 µL of fresh medium, to which was added 100 µL of kit reagent. The wells were then returned to 37° C., 5% CO2 for 2 h 30 in the dark, after which […] were transferred from each well into a 96-well plate, which was read at 492 nm absorbance on an Anthos Lucy I (Anthos Labtech Instruments, Germany). The absorbance values were converted to cell numbers using standard curves specific to lens epithelial cells (determined in Roy Quinlan's laboratory, University of Durham, UK), and the viable cell numbers obtained were averaged with standard deviation. Significant differences in the values obtained between control and treated cells at different timepoints were assessed using an independent, two-tailed t-test.

COc1ccc(/C=C\c2cc(OC)c(OC)c(OC)c2)cc1OP(=O)(O)O [CA4P, combretastatin A-4 phosphate]
polymerized tubulin (western blot) [1]: loss of polymerized tubulin | polymerized tubulin (immunofluorescence) [2]: loss of polymerized tubulin | number of BIE cells (viable cell number, MTT) (BIE cells): steady reduction in the number of BIE cells
